59 compounds from patent publication US20250154145A1, “OXER1 ANTAGONISTS AND USES THEREOF” (Fairhaven Pharmaceuticals Ins., priority 2021, published 2025) can be followed below.

pIC50: −log10 of the molar value.

The first assay relates to neutrophils. Kind of assay: Neutrophil calcium flux assay (5-OXO-ETE-stimulated, Indo-1 fluorescence). Format: cell-based. Conditions: 5-OXO-ETE-stimulated calcium flux. The method, then: After isolation, neutrophils were resuspended in PBS without calcium and Magnesium (PBS −/−) at a concentration of 5×10^6 cells/ml. 2ul of Indo-1 (1 mM) were added per ml of cells. After incubation at 37° C. for 30 minutes, cells were washed twice in PBS −/− and resuspended at 5×10^6 cells/ml in assay buffer (HBSS 1× with calcium and magnesium and […]). In a 96-well Black optical clear bottom plate 100 μL of neutrophil were dispensed to each well. After incubation at 37° C. for 5 minutes, 50 μL of assay buffer or 3× antagonist were added and incubated for 5 min in a Tecan Spark plate reader (Tecan, Morrisville, NC). Baseline was measured for 30 sec (wavelength setup: excitation: 331 nm and emission:410 nm). When baseline is stable, 50p of 5-OXO-ETE at 200 nM (4×) or HBSS was added to appropriate wells. Fluorescence was measured every 5 seconds for 30 cycles. Results are expressed as Net fluorescence (FLU minus Background and injection peak). All data were analyzed using GraphPad Prism version 9 for Windows (GraphPad, San Diego, CA).
As to `CC(CC(=O)O)CC(=O)c1c(CCCCCC(O)c2cccc(C(=O)N(C)C)c2)n(C)c2ncc(C#N)cc12` (single isomer, unassigned) [Compound I-316], the negative-log IC50 (pIC50) is under 6.52.

Take `CC(CC(=O)O)CC(=O)c1c(CCCCCC(O)c2cccc(C#N)c2)n(C)c2ncc(Cl)cc12` (single isomer, unassigned) [Compound I-309]: the pIC50 is under 6.52.

Still in this assay, the particulars now being: Neutrophil, 5-OXO-ETE-stimulated calcium flux.
For the compound `C[C@H](CC(=O)O)CC(=O)c1c(CCCCOCc2cccc(C#N)c2)n(C)c2c(F)cc(Cl)cc12` [Compound I-415], the pIC50 is under 6.52.

With `Cn1c(CCCCCCC#CC2CC(F)(F)C2)c(C(=O)N2CC[C@H](c3nnn[nH]3)C2)c2cc(Cl)ccc21` [Compound I-353], the pIC50 is over 7.00.

On to `CC(CC(=O)O)CC(=O)c1c2cc(C#N)cnc2n(C)c1[C@H]1CC[C@H](OCc2cccc(Cl)c2)CC1` (some centres unmarked) [Compound I-367], for which the pIC50 was under 6.52.

For the compound `CC(CC(=O)O)CC(=O)c1c(CCCCOCc2ccc(F)c(Cl)c2)n(C)c2ncc(C#N)cc12` (centres unmarked) [Compound I-291], the pIC50 was over 7.00.

Regarding `C[C@H](CC(=O)O)CC(=O)c1c(CCOCC#Cc2cccnc2)n(C)c2ncc(Cl)cc12` [Compound I-228], the pIC50 was under 6.52.

Consider `C[C@@H](CC(=O)NS(C)(=O)=O)CC(=O)c1c(CCCCCCc2cccc(Cl)c2)n(C)c2ccc(Cl)cc12` [Compound I-15], for which the pIC50 was under 6.52.

Consider `CC(CC(=O)O)CC(=O)c1c(CCOCCNc2cccnc2)n(C)c2ncc(Cl)cc12` (centres unmarked) [Compound I-139], for which the pIC50 was under 6.52.

As to `Cn1c(CCCCCCc2cccc(Cl)c2)c(C(=O)N2CCC[C@@H](C(=O)O)C2)c2cc(Cl)ccc21` [Compound I-156], the pIC50 was under 6.52.

As for `C[C@@H](CC(=O)O)CC(=O)c1c(CCCCOCc2ccc(F)cc2)n(C)c2ncc(Cl)cc12` [Compound I-216], the pIC50 is under 6.52.

Consider `C[C@H](CC(=O)O)CC(=O)c1c(CCCCCNc2cnccn2)n(C)c2ccc(Cl)cc12` [Compound I-129], for which the pIC50 was under 6.52.

For `Cn1c(CCCCCCc2cccc(Cl)c2)c(C(=O)N2CCC[C@@H]2CC(=O)O)c2cc(Cl)ccc21` [Compound I-119], the pIC50 is under 6.52.

As to `COC(=O)NCCCCCc1c(C(=O)CC(C)CC(=O)O)c2cc(Cl)ccc2n1C` (centres unmarked) [Compound I-134], the pIC50 was under 6.52.

For `Cn1c(CCCCCCc2cccc(Cl)c2)c(C(=O)N2CC[C@H](c3nnn[nH]3)C2)c2cc(Cl)cnc21` [Compound I-149], the negative-log IC50 (pIC50) is over 7.00.

For `Cn1c(CCCCOCc2cccc(Cl)c2)c(C(=O)N2CC[C@H](C(=O)O)C2)c2cc(Cl)cnc21` [Compound I-175], the pIC50 is under 6.52.

As to `CC(CC(=O)O)CC(=O)c1c(CCOCCNc2cccc(Cl)c2)n(C)c2ncc(C#N)cc12` (centres unmarked) [Compound I-288], the pIC50 is 6.52 to 7.00.

Take `CC(CC(=O)O)CC(=O)c1c(CCCCOCc2cncnc2)n(C)c2ncc(C#N)cc12` (centres unmarked) [Compound I-388]: the pIC50 is under 6.52.

Consider `CC(CC(=O)O)CC(=O)c1c(CCCCCCC#CC2CC(F)(F)C2)n(C)c2ncc(C#N)cc12` (centres unmarked) [Compound I-322], for which the pIC50 is over 7.00.

Consider `C[C@@H](CC(=O)c1c(CCCCCCc2cccc(Cl)c2)n(C)c2ncc(Cl)cc12)Cc1nnn[nH]1` [Compound I-84], for which the pIC50 was over 7.00.

On to `C[C@H](CC(=O)O)CC(=O)c1c(CCCCC#Cc2ccccc2)n(C)c2ccc(Cl)cc12` [Compound I-117], for which the pIC50 was over 7.00.

In the case of `Cn1c(CCCCOCc2cccc(Cl)c2)c(C(=O)N2CC[C@H](c3nnn[nH]3)C2)c2cc(C#N)cnc21` [Compound I-224], the pIC50 was 6.52 to 7.00.

As for `CC(CN(C)C(=O)c1c(CCCCCCc2cccc(Cl)c2)n(C)c2ccc(Cl)cc12)C(=O)O` (centres unmarked) [Compound I-243], the pIC50 is under 6.52.

Take `C[C@H](CC(=O)O)CC(=O)c1c(CCCCOCc2cccc(Cl)c2)[nH]c2ccc(Cl)cc12` [Compound I-189]: the pIC50 was 6.52 to 7.00.

For `COc1cccc(COCCCCc2c(C(=O)CC(C)CC(=O)O)c3cc(Cl)cnc3n2C)c1` (centres unmarked) [Compound I-403], the pIC50 was 6.52 to 7.00.

As for `Cn1c(CCCCCCc2cccc(Cl)c2)c(C(=O)N2CC(CC(=O)O)C2)c2cc(Cl)ccc21` [Compound I-152], the pIC50 was under 6.52.

Turning to `Cn1c(CCCCCCc2cccc(Cl)c2)c(C(=O)N2CC[C@@H](C(=O)O)C2)c2cc(Cl)ccc21` [Compound I-120], the pIC50 is 6.52 to 7.00.

`C[C@@H](CC(=O)O)CC(=O)c1c(CCCCOCc2cccc(OC(F)(F)F)c2)n(C)c2cnccc12` [Compound I-409]: the pIC50 is under 6.52.

Regarding `CC(CC(=O)O)CC(=O)c1c(CCCCOCc2cccc(C#N)c2)n(C)c2c(F)cc(C#N)cc12` (centres unmarked) [Compound I-414], the pIC50 is under 6.52.

Take `Cn1c(CCCCCCC#CC2CC(F)(F)C2)c(C(=O)N2CC[C@H](C(=O)NCC(=O)O)C2)c2cc(C#N)cnc21` [Compound I-462]: the pIC50 was under 6.52.

As for `C[C@H](CC(=O)O)CC(=O)c1c(CCCCC(=O)Nc2cc(Cl)ccc2O)n(C)c2ccc(Cl)cc12` [Compound I-146], the pIC50 is 6.52 to 7.00.

With `C[C@H](CC(=O)O)N(C)C(=O)c1c(CCCCCCc2cccc(Cl)c2)n(C)c2ccc(Cl)cc12` [Compound I-239], the pIC50 is under 6.52.

Consider `C[C@@H](CC(=O)O)CC(=O)c1c(CCCCOCc2cccc(OC(F)(F)F)c2)n(C)c2ncc(C#N)cc12` [Compound I-390], for which the pIC50 is under 6.52.

In the case of `C[C@H](CC(=O)O)CC(=O)c1c(CCCCCCC#CC2COC2)n(C)c2ccc(Cl)cc12` [Compound I-332], the pIC50 is over 7.00.

On to `C[C@@H](CC(=O)O)CC(=O)c1c(CCCCOCc2cccc(Cl)c2)n(C)c2cnccc12` [Compound I-406], for which the pIC50 was under 6.52.

On to `CC(CC(=O)O)CC(=O)c1c(CCCCOCCc2ccccc2)n(C)c2ncc(C#N)cc12` (centres unmarked) [Compound I-424], for which the pIC50 was under 6.52.

As for `Cn1c(CCCCCCc2cccc(Cl)c2)c(C(=O)N2CCC[C@H](C(=O)O)C2)c2cc(Cl)ccc21` [Compound I-155], the pIC50 is 6.52 to 7.00.

With `COC(=O)[C@H]1CCN(C(=O)c2c(CCCCCCC#CC3CC(F)(F)C3)n(C)c3ncc(C#N)cc23)[C@@H]1C` [Compound I-351], the pIC50 is under 6.52.

In the case of `CC(CC(=O)O)CC(=O)c1c(CCCCCOCc2cccc(Cl)c2)[nH]c2ccc(C#N)cc12` (centres unmarked) [Compound I-443], the pIC50 is 6.52 to 7.00.

Regarding `C[C@H](CC(=O)O)CC(=O)c1c(COCCCCC#CC2CC(F)(F)C2)n(C)c2ccc(Cl)cc12` [Compound I-327], the pIC50 is over 7.00.

For the compound `C[C@H](CC(=O)O)CC(=O)c1c(CCOCC#Cc2ccc(F)nc2)n(C)c2ncc(Cl)cc12` [Compound I-229], the pIC50 was 6.52 to 7.00.

Consider `Cn1nc(CCCCOCc2cccc(Cl)c2)c(C(=O)N2CC[C@H](C(=O)O)C2)c1-c1cccc(Cl)c1` [Compound I-192], for which the pIC50 was under 6.52.

`CC(CNC(=O)c1c(CCCCCCc2cccc(Cl)c2)n(C)c2ccc(Cl)cc12)C(=O)O` (centres unmarked) [Compound I-241]: the pIC50 was under 6.52.

Regarding `Cn1c(CCCCCCC#CC2CC(F)(F)C2)c(C(=O)N2CC[C@H](C(=O)NS(=O)(=O)C(F)(F)F)C2)c2cc(C#N)cnc21` [Compound I-364], the pIC50 was under 6.52.

On to `CC(CN(C)C(=O)c1c(CCCCOCc2cccc(Cl)c2)n(C)c2ncc(C#N)cc12)C(=O)O` (centres unmarked) [Compound I-244], for which the pIC50 is under 6.52.

For the compound `C[C@H](CC(=O)O)CC(=O)c1c(CCCCCCc2cccc(Cl)c2)[nH]c2ccc(Cl)cc12` [Compound I-144], the pIC50 is over 7.00.

On to `Cn1c(CCCCCCCC#CC2CC(F)(F)C2)c(C(=O)N2CC[C@H](C(=O)O)C2)c2cc(C#N)cnc21` [Compound I-342], for which the pIC50 was under 6.52.

For `CC(CC(=O)O)CC(=O)c1c(CCCCOCc2cncc(C#N)c2)n(C)c2ncc(Cl)cc12` (centres unmarked) [Compound I-445], the negative-log IC50 (pIC50) is under 6.52.

On to `C[C@H](CC(=O)O)CC(=O)c1c(CCCCC#Cc2cccnc2)n(C)c2ccc(Cl)cc12` [Compound I-176], for which the pIC50 is over 7.00.

Regarding `CC(CC(=O)O)CC(=O)c1c(CCCCOCc2cncnc2)n(C)c2ccc(C#N)cc12` (centres unmarked) [Compound I-393], the pIC50 is under 6.52.

`C[C@H](CC(=O)O)NC(=O)c1c(CCCCOCc2cccc(Cl)c2)n(C)c2ncc(C#N)cc12` [Compound I-238]: the pIC50 is under 6.52.

With `CC(CC(=O)O)CC(=O)c1c2cc(C#N)cnc2n(C)c1[C@H]1CC[C@@H](OCc2cccc(Cl)c2)CC1` (some centres unmarked) [Compound I-292], the pIC50 was under 6.52.

With `CC(CC(=O)O)CC(=O)c1c2cc(C#N)cnc2n(C)c1[C@H]1CC[C@H](COCc2cccc(Cl)c2)CC1` (some centres unmarked) [Compound I-401], the pIC50 was under 6.52.

Regarding `C[C@H](CC(=O)O)CC(=O)c1c(CCCCCCCC#CC2CC(F)(F)C2)n(C)c2ncc(C#N)cc12` [Compound I-335], the pIC50 is over 7.00.

With `C[C@@H](CC(=O)O)CC(=O)c1c(CCCCOCc2cccc(C#N)c2)n(C)c2ncc(C#N)cc12` [Compound I-384], the pIC50 was under 6.52.

In the case of `Cn1c(-c2ccccc2Cl)cc(C(=O)N2CC[C@H](C(=O)O)C2)c1CCCCOCc1cccc(Cl)c1` [Compound I-171], the pIC50 was under 6.52.

For the compound `C[C@@H](CC(=O)O)CC(=O)c1c(CCCCO[C@@H](C)c2ccccc2)n(C)c2ncc(C#N)cc12` [Compound I-431], the pIC50 was under 6.52.

For the compound `[2H]C([2H])([2H])n1c(CCCCOCc2ccccc2)c(C(=O)CC(C)CC(=O)O)c2cc(C#N)cnc21` (centres unmarked) [Compound I-420], the pIC50 is over 7.00.

On to `CC(CC(=O)O)CC(=O)c1c(CCCC(C)OCc2ccccc2)n(C)c2ncc(C#N)cc12` (centres unmarked) [Compound I-435], for which the pIC50 was 6.52 to 7.00.
